The values below come from paper PMC11900971 (International Journal of Molecular Sciences, 2025).

Read-outs that look alike come from different tables or passages of the source.

Assay [1] relates to Trypanosoma brucei rhodesiense, STIB 900 strain, bloodstream forms. In words: microbe, parasite or virus in culture.
In assay [2] the test system is L6 cells (rat skeletal myoblasts). Kind of assay: cells. The conditions noted are these: L6, read-out: Cyt L6 IC50.
In assay [3] the test system is Plasmodium falciparum, strain NF54, erythrocytic stages. In words: microbe, parasite or virus in culture.
Setting [4] is: read-out: T. b. rhod. pIC50 (converted).
Setting [5] is: NF54, read-out: P. falc. pIC50 (converted).

For `CC1=C(Cc2ccc([N+](=O)[O-])cc2F)C(=O)c2ccccc2C1=O` [Compound 2h, 2-[(2-Fluoro-4-nitrophenyl)methyl]-3-methyl-1,4-naphthoquinone], the IC50 was 25.5 µM in assay [1] (read-out: T. b. rhod. IC50); 25.7 µM in assay [1] (setting [4]); 17.4 µM in assay [2]; 22 nM in assay [3] (NF54, read-out: P. falc. IC50); 21.4 nM in assay [3] (setting [5]).

`O=C1C(Cc2ccccc2)=C(C(F)(F)F)C(=O)c2ccccc21` [Compound 5a, 2-Benzyl-3-(trifluoromethyl)-1,4-naphthoquinone]: the IC50 is 1.88 µM in assay [1] (read-out: T. b. rhod. IC50); 1.91 µM in assay [1] (setting [4]); 10.8 µM in assay [2]; 3800 nM in assay [3] (NF54, read-out: P. falc. IC50); 3800 nM in assay [3] (setting [5]).

For `CC1=C(Cc2ccccc2)C(=O)c2ccccc2C1=O` [Compound 2a, 2-Benzyl-3-methyl-1,4-naphthoquinone], the IC50 is 62.8 µM in assay [1] (read-out: T. b. rhod. IC50); 63.1 µM in assay [1] (setting [4]); 45 µM in assay [2]; 358 nM in assay [3] (NF54, read-out: P. falc. IC50); 355 nM in assay [3] (setting [5]).

On to `CC1=C(Cc2cccc(OC(F)(F)F)c2)C(=O)c2ccccc2C1=O` [Compound 2r, 2-Methyl-3-{[3-(trifluoromethoxy)phenyl]methyl}-1,4-naphthoquinone], for which the IC50 is 26.1 µM in assay [1] (read-out: T. b. rhod. IC50); 26.3 µM in assay [1] (setting [4]); 80.5 µM in assay [2]; 49 nM in assay [3] (NF54, read-out: P. falc. IC50); 49 nM in assay [3] (setting [5]).

`O=C1C(Cc2ccc(C(F)(F)F)cc2)=C(C(F)(F)F)C(=O)c2ccccc21` [Compound 5b, 2-(Trifluoromethyl)-3-{[4-(trifluoromethyl)phenyl]methyl}-1,4-naphthoquinone]: the IC50 in assay [1] (read-out: T. b. rhod. IC50) was 1.96 µM; in assay [1] (setting [4]), 1.95 µM; in assay [2], 2 µM; in assay [3] (NF54, read-out: P. falc. IC50), 1460 nM; in assay [3] (setting [5]), 1450 nM.

Turning to `CC1=C(Cc2ccc(Cl)nc2)C(=O)c2ccccc2C1=O` [Compound 2f, 2-[(6-Chloropyridin-3-yl)methyl]-3-methyl-1,4-naphthoquinone], the IC50 in assay [1] (read-out: T. b. rhod. IC50) is 8.27 µM; in assay [1] (setting [4]), 8.32 µM; in assay [2] it was 24.2 µM; in assay [3] (NF54, read-out: P. falc. IC50), 37 nM; in assay [3] (setting [5]), 37.2 nM.

On to `CC1=C(Cc2cccc(NC(=O)C(F)(F)F)c2)C(=O)c2ccccc2C1=O` [Compound 2m, 2-Methyl-3-{[3-(2,2,2-trifluoroacetamido)phenyl]methyl}-1,4-naphthoquinone], for which the IC50 in assay [1] (read-out: T. b. rhod. IC50) is 24.3 µM; in assay [1] (setting [4]) it was 24 µM; in assay [2], 13.7 µM; in assay [3] (NF54, read-out: P. falc. IC50) it was 321 nM; in assay [3] (setting [5]), 324 nM.

Regarding `CCN(CC)CCCC(C)Nc1ccnc2cc(Cl)ccc12` (stereo not shown) [Chl., chloroquine, reference compound], the IC50 in assay [2] is 91.1 µM; in assay [3] (NF54, read-out: P. falc. IC50), 3 nM; in assay [3] (setting [5]), 3.02 nM.

On to `CC1=C(Cc2ccc([N+](=O)[O-])cc2)C(=O)c2ccccc2C1=O` [Compound 2g, 2-Methyl-3-[(4-nitrophenyl)methyl]-1,4-naphthoquinone], for which the IC50 in assay [1] (read-out: T. b. rhod. IC50) is 28 µM; in assay [1] (setting [4]) it was 28.2 µM; in assay [2] it was 19.1 µM; in assay [3] (NF54, read-out: P. falc. IC50), 111 nM; in assay [3] (setting [5]), 110 nM.

For the compound `CC1=C(Cc2ccc(F)cc2C(F)(F)F)C(=O)c2ccccc2C1=O` [Compound 2d, 2-{[4-Fluoro-2-(trifluoromethyl)phenyl]methyl}-3-methyl-1,4-naphthoquinone], the IC50 is 23.2 µM in assay [1] (read-out: T. b. rhod. IC50); 23.4 µM in assay [1] (setting [4]); 62.3 µM in assay [2]; 20 nM in assay [3] (NF54, read-out: P. falc. IC50); 20 nM in assay [3] (setting [5]).

Regarding `COc1cc([C@@H]2c3cc4c(cc3[C@H](O)[C@H]3COC(=O)[C@H]23)OCO4)cc(OC)c1OC` [Pod., podophyllotoxin, reference compound], the IC50 in assay [2] is 0.024 µM.

For `Nc1nc(N)nc(Nc2ccc([As]3SCC(CO)S3)cc2)n1` (stereo not shown) [Mel., melarsoprol, reference compound], the IC50 in assay [1] (read-out: T. b. rhod. IC50) is 0.006 µM; in assay [1] (setting [4]), 0.00603 µM; in assay [2], 24.2 µM.

On to `CC1=C(Cc2cc(F)c(F)cc2F)C(=O)c2ccccc2C1=O` [Compound 2i, 2-Methyl-3-[(2,4,5-trifluorophenyl)methyl]-1,4-naphthoquinone], for which the IC50 is 30.4 µM in assay [1] (read-out: T. b. rhod. IC50); 30.2 µM in assay [1] (setting [4]); 54.5 µM in assay [2]; 44 nM in assay [3] (NF54, read-out: P. falc. IC50); 44.7 nM in assay [3] (setting [5]).

Take `CC1=C(Cc2ccc(OC(F)(F)F)cc2)C(=O)c2ccccc2C1=O` [Compound 2q, 2-Methyl-3-{[4-(trifluoromethoxy)phenyl]methyl}-1,4-naphthoquinone]: the IC50 in assay [1] (read-out: T. b. rhod. IC50) was 81.6 µM; in assay [1] (setting [4]), 81.3 µM; in assay [2], 123 µM; in assay [3] (NF54, read-out: P. falc. IC50) it was 29 nM; in assay [3] (setting [5]), 28.8 nM.

With `CC1=C(Cc2ccc(F)cc2)C(=O)c2ccccc2C1=O` [Compound 2p, 2-[(4-Fluorophenyl)methyl]-3-methyl-1,4-naphthoquinone], the IC50 in assay [1] (read-out: T. b. rhod. IC50) was 33.2 µM; in assay [1] (setting [4]), 33.1 µM; in assay [2], 51.1 µM; in assay [3] (NF54, read-out: P. falc. IC50) it was 43 nM; in assay [3] (setting [5]) it was 42.7 nM.

Turning to `O=C1C(Cc2ccc(C(F)(F)F)cc2F)=C(C(F)(F)F)C(=O)c2ccccc21` [Compound 5c, 2-{[2-Fluoro-4-(trifluoromethyl)phenyl]methyl}-3-(trifluoromethyl)-1,4-naphthoquinone], the IC50 was 9.41 µM in assay [1] (read-out: T. b. rhod. IC50); 9.33 µM in assay [1] (setting [4]); 0.805 µM in assay [2]; 2310 nM in assay [3] (NF54, read-out: P. falc. IC50); 2290 nM in assay [3] (setting [5]).

In the case of `CC1=C(Cc2cc(OC(F)(F)F)ccc2F)C(=O)c2ccccc2C1=O` [Compound 2s, 2-{[2-Fluoro-5-(trifluoromethoxy)phenyl]methyl}-3-methyl-1,4-naphthoquinone], the IC50 is 75.8 µM in assay [1] (read-out: T. b. rhod. IC50); 75.9 µM in assay [1] (setting [4]); 83.2 µM in assay [2]; 38 nM in assay [3] (NF54, read-out: P. falc. IC50); 38 nM in assay [3] (setting [5]).

For `O=C1C=C(Cc2ccc(C(F)(F)F)cc2F)C(=O)c2ccccc21` [Compound 4c, 2-{[2-Fluoro-4-(trifluoromethyl)phenyl]methyl}-1,4-naphthoquinone], the IC50 is 0.79 µM in assay [1] (read-out: T. b. rhod. IC50); 0.794 µM in assay [1] (setting [4]); 37 µM in assay [2]; 1760 nM in assay [3] (NF54, read-out: P. falc. IC50); 1780 nM in assay [3] (setting [5]).

Consider `O=C1C=C(Cc2ccc(C(F)(F)F)cc2)C(=O)c2ccccc21` [Compound 4b, 2-{[4-(Trifluoromethyl)phenyl]methyl}-1,4-naphthoquinone], for which the IC50 in assay [1] (read-out: T. b. rhod. IC50) was 0.503 µM; in assay [1] (setting [4]) it was 0.501 µM; in assay [2] it was 19.2 µM; in assay [3] (NF54, read-out: P. falc. IC50) it was 686 nM; in assay [3] (setting [5]), 692 nM.

Regarding `CC1=C(Cc2cc(C(F)(F)F)ccc2F)C(=O)c2ccccc2C1=O` [Compound 2e, 2-{[2-Fluoro-5-(trifluoromethyl)phenyl]methyl}-3-methyl-1,4-naphthoquinone], the IC50 in assay [1] (read-out: T. b. rhod. IC50) is 93 µM; in assay [1] (setting [4]), 93.3 µM; in assay [2], 43 µM; in assay [3] (NF54, read-out: P. falc. IC50) it was 6 nM; in assay [3] (setting [5]) it was 5.75 nM.

On to `CC(=O)Nc1cccc(CC2=C(C)C(=O)c3ccccc3C2=O)c1` [Compound 2k, 2-[(3-Acetamidophenyl)methyl]-3-methyl-1,4-naphthoquinone], for which the IC50 was 39.5 µM in assay [1] (read-out: T. b. rhod. IC50); 39.8 µM in assay [1] (setting [4]); 16.6 µM in assay [2]; 758 nM in assay [3] (NF54, read-out: P. falc. IC50); 759 nM in assay [3] (setting [5]).
